Reference: ChEMBL document CHEMBL1201861, “Genomics of Drug Sensitity in Cancer screening data, Wellcome Trust Sanger Institute”

Assays:
Assay in all cases: cells
TGW = assay type: functional, cell-based, Homo sapiens; details: Homo sapiens, TGW;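 also: growth inhibition of human TGW cells, read out with a cell viability assay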
Description: SANGER: Inhibition of human TGW cell growth in a cell viability assay.

SK-LMS-1 = assay type: functional, cell-based, Homo sapiens; details: Homo sapiens, SK-LMS-1;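 also: growth inhibition of human SK-LMS-1 cells, read out with a cell viability assay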
Description: SANGER: Inhibition of human SK-LMS-1 cell growth in a cell viability assay.

LU-139 = assay type: functional, cell-based, Homo sapiens; details: Homo sapiens, LU-139
Description: SANGER: Inhibition of human LU-139 cell growth in a cell viability assay.

KGN = assay type: functional, cell-based, Homo sapiens; details: Homo sapiens, KGN;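 also: growth inhibition of KGN cells, read out with a cell viability assay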
Description: SANGER: Inhibition of human KGN cell growth in a cell viability assay.

CCRF-CEM = assay type: functional, cell-based, Homo sapiens; details: Homo sapiens, CCRF-CEM;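 also: inhibition of CCRF-CEM cell growth, measured by a cell viability assay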
Description: SANGER: Inhibition of human CCRF-CEM cell growth in a cell viability assay.

RPMI-8226 = assay type: functional, cell-based, Homo sapiens; details: Homo sapiens, RPMI-8226
Description: SANGER: Inhibition of human RPMI-8226 cell growth in a cell viability assay.

SK-N-FI = assay type: functional, cell-based, Homo sapiens; details: Homo sapiens, SK-N-FI;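 also: cell viability assay measuring growth inhibition of human SK-N-FI cells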
Description: SANGER: Inhibition of human SK-N-FI cell growth in a cell viability assay.

BE-13 = assay type: functional, cell-based, Homo sapiens; details: Homo sapiens, BE-13;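 also: growth inhibition of human BE-13 cells, measured with a cell viability assay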
Description: SANGER: Inhibition of human BE-13 cell growth in a cell viability assay.

MS-1 = assay type: functional, cell-based, Homo sapiens; details: Homo sapiens, MS-1
Description: SANGER: Inhibition of human MS-1 cell growth in a cell viability assay.

NEC8 = assay type: functional, cell-based, Homo sapiens; details: Homo sapiens, NEC8;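 also: growth inhibition of human NEC8 cells, read out by a cell viability assay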
Description: SANGER: Inhibition of human NEC8 cell growth in a cell viability assay.

COLO-320-HSR = assay type: functional, cell-based, Homo sapiens; details: Homo sapiens, COLO-320-HSR;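 also: growth inhibition of COLO-320-HSR cells, determined with a cell viability assay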
Description: SANGER: Inhibition of human COLO-320-HSR cell growth in a cell viability assay.

SF-126 = assay type: functional, cell-based, Homo sapiens; details: Homo sapiens, SF-126;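 also: growth inhibition of human SF126 cells, read out with a cell viability assay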
Description: SANGER: Inhibition of human SF126 cell growth in a cell viability assay.

HCE-4 = assay type: functional, cell-based; details: Homo sapiens;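 also: cell viability assay measuring inhibition of growth in the human HCE-4 cell line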
Description: SANGER: Inhibition of human HCE-4 cell growth in a cell viability assay.

SNU-C2B = assay type: functional, cell-based; details: Homo sapiens;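 also: cell viability readout used to measure compound-driven suppression of SNU-C2B cell proliferation, IC50 marking half-maximal growth inhibition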
Description: SANGER: Inhibition of human SNU-C2B cell growth in a cell viability assay.

DSH1 = assay type: functional, cell-based; details: Homo sapiens;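 also: growth inhibition of human DSH1 cells, measured with a cell viability readout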
Description: SANGER: Inhibition of human DSH1 cell growth in a cell viability assay.

RH-1 = assay type: functional, cell-based, Homo sapiens; details: Homo sapiens, RH-1;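 also: growth inhibition of human RH-1 cells, read out with a cell viability assay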
Description: SANGER: Inhibition of human RH-1 cell growth in a cell viability assay.

NCI-H1355 = assay type: functional, cell-based, Homo sapiens; details: Homo sapiens, NCI-H1355;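 also: growth inhibition of human NCI-H1355 cells, read out by a cell viability assay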
Description: SANGER: Inhibition of human NCI-H1355 cell growth in a cell viability assay.

NCI-H69 = assay type: functional, cell-based, Homo sapiens; details: Homo sapiens, NCI-H69;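 also: growth inhibition of the cell line, read out with a cell viability assay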
Description: SANGER: Inhibition of human NCI-H69 cell growth in a cell viability assay.

JAR = assay type: functional, cell-based, Homo sapiens; details: Homo sapiens, JAR;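 also: growth inhibition of human JAR cells determined with a cell viability assay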
Description: SANGER: Inhibition of human JAR cell growth in a cell viability assay.

AM-38 = assay type: functional, cell-based, Homo sapiens; details: Homo sapiens, AM-38;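 also: growth inhibition of AM-38 cells of human origin, read out by a cell viability assay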
Description: SANGER: Inhibition of human AM-38 cell growth in a cell viability assay.

NB69 = assay type: functional, cell-based, Homo sapiens; details: Homo sapiens, NB69;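 also: growth inhibition of NB69 cells, determined by a cell viability assay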
Description: SANGER: Inhibition of human NB69 cell growth in a cell viability assay.

NOMO-1 = assay type: functional, cell-based, Homo sapiens; details: Homo sapiens, NOMO-1;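 also: growth inhibition of human NOMO-1 cells measured by a cell viability assay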
Description: SANGER: Inhibition of human NOMO-1 cell growth in a cell viability assay.

8-MG-BA = assay type: functional, cell-based, Homo sapiens; details: Homo sapiens, 8-MG-BA;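 also: growth inhibition of 8-MG-BA cells, read out with a cell viability assay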
Description: SANGER: Inhibition of human 8-MG-BA cell growth in a cell viability assay.

A3-KAW = assay type: functional, cell-based, Homo sapiens; details: Homo sapiens, A3-KAW;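 also: growth inhibition of human A3-KAW cells, read out with a cell viability assay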
Description: SANGER: Inhibition of human A3-KAW cell growth in a cell viability assay.

D283 Med = assay type: functional, cell-based, Homo sapiens; details: Homo sapiens, D283 Med
Description: SANGER: Inhibition of human D-283MED cell growth in a cell viability assay.

NB13 = assay type: functional, cell-based, Homo sapiens; details: Homo sapiens, NB13;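 also: cell viability readout measuring growth inhibition of human NB13 cells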
Description: SANGER: Inhibition of human NB13 cell growth in a cell viability assay.

BT-474 = assay type: functional, cell-based, Homo sapiens; details: Homo sapiens, BT-474
Description: SANGER: Inhibition of human BT-474 cell growth in a cell viability assay.

SK-N-DZ = assay type: functional, cell-based, Homo sapiens; details: Homo sapiens, SK-N-DZ; read-out: IC50;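 also: growth inhibition of the cancer cell line, read out through a viability assay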
Description: SANGER: Inhibition of human SK-N-DZ cell growth in a cell viability assay.

TE-8 = assay type: functional, cell-based, Homo sapiens; details: Homo sapiens, TE-8;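 also: growth inhibition of TE-8 cells, measured with a cell viability readout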
Description: SANGER: Inhibition of human TE-8 cell growth in a cell viability assay.

SHP77 = assay type: functional, cell-based, Homo sapiens, SHP-77; details: Homo sapiens, SHP77;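 also: growth inhibition of human SHP-77 cells measured by a cell viability assay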
Description: SANGER: Inhibition of human SHP-77 cell growth in a cell viability assay.

D-247MG = assay type: functional, cell-based; details: Homo sapiens
Description: SANGER: Inhibition of human D-247MG cell growth in a cell viability assay.

LS-1034 = assay type: functional, cell-based, Homo sapiens; details: Homo sapiens, LS-1034
Description: SANGER: Inhibition of human LS-1034 cell growth in a cell viability assay.

SK-MEL-1 = assay type: functional, cell-based, Homo sapiens; details: Homo sapiens, SK-MEL-1;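 also: growth inhibition of human SK-MEL-1 cells, read out by a cell viability assay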
Description: SANGER: Inhibition of human SK-MEL-1 cell growth in a cell viability assay.

MV4-11 = assay type: functional, cell-based, Homo sapiens, MV-4-11; details: Homo sapiens, MV4-11;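 also: cell viability readout measuring growth inhibition of human MV-4-11 cells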
Description: SANGER: Inhibition of human MV-4-11 cell growth in a cell viability assay.

JVM-3 = assay type: functional, cell-based, Homo sapiens; details: Homo sapiens, JVM-3;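 also: growth inhibition of human JVM-3 cells, read out with a cell viability assay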
Description: SANGER: Inhibition of human JVM-3 cell growth in a cell viability assay.

SW982 = assay type: functional, cell-based; details: Homo sapiens;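 also: growth inhibition of SW982 cells, read out with a cell viability assay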
Description: SANGER: Inhibition of human SW982 cell growth in a cell viability assay.

RPMI-8866 = assay type: functional, cell-based, Homo sapiens; details: Homo sapiens, RPMI-8866
Description: SANGER: Inhibition of human RPMI-8866 cell growth in a cell viability assay.

NTERA-2-cl-D1 = assay type: functional, cell-based, Homo sapiens; details: Homo sapiens, NTERA-2-cl-D1;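 also: inhibition of cell growth, measured with a cell viability assay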
Description: SANGER: Inhibition of human NTERA-S-cl-D1 cell growth in a cell viability assay.

TE-9 = assay type: functional, cell-based, Homo sapiens; details: Homo sapiens, TE-9;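 also: cell growth inhibition, measured with a cell viability readout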
Description: SANGER: Inhibition of human TE-9 cell growth in a cell viability assay.

NCI-H1648 = assay type: functional, cell-based, Homo sapiens; details: Homo sapiens, NCI-H1648;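 also: cell viability assay measuring inhibition of NCI-H1648 cell growth, from the Sanger screening data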
Description: SANGER: Inhibition of human NCI-H1648 cell growth in a cell viability assay.

A388 = assay type: functional, cell-based; details: Homo sapiens;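 also: growth inhibition of human A388 cells, read out with a cell viability assay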
Description: SANGER: Inhibition of human A388 cell growth in a cell viability assay.

HEL = assay type: functional, cell-based, Homo sapiens; details: Homo sapiens, HEL;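 also: growth inhibition of HEL cells, read out with a cell viability assay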
Description: SANGER: Inhibition of human HEL cell growth in a cell viability assay.

ES1 = assay type: functional, cell-based, Homo sapiens; details: Homo sapiens, ES1;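 also: growth inhibition of ES1 cells, read out with a cell viability assay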
Description: SANGER: Inhibition of human ES1 cell growth in a cell viability assay.

SW 962 = assay type: functional, cell-based, Homo sapiens; details: Homo sapiens, SW 962;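 also: growth inhibition of human SW962 cells, read out by a cell viability assay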
Description: SANGER: Inhibition of human SW962 cell growth in a cell viability assay.

HOP-62 = assay type: functional, cell-based, Homo sapiens; details: Homo sapiens, HOP-62;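 also: cell growth inhibition determined with a viability assay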
Description: SANGER: Inhibition of human HOP-62 cell growth in a cell viability assay.

OCUB-M = assay type: functional, cell-based; details: Homo sapiens;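 also: growth inhibition of the cancer cell line, read out through a cell viability assay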
Description: SANGER: Inhibition of human OCUB-M cell growth in a cell viability assay.

NMC-G1 = assay type: functional, cell-based, Homo sapiens; details: Homo sapiens, NMC-G1;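 also: growth inhibition of the NMC-G1 cell line, measured with a cell viability read-out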
Description: SANGER: Inhibition of human NMC-G1 cell growth in a cell viability assay.

MZ1-PC = assay type: functional, cell-based, Homo sapiens; details: Homo sapiens, MZ1-PC;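 also: cell viability assay measuring growth inhibition of human MZ1-PC cells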
Description: SANGER: Inhibition of human MZ1-PC cell growth in a cell viability assay.

EOL1 = assay type: functional, cell-based, Homo sapiens; details: Homo sapiens, EOL1;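 also: growth inhibition of EoL-1 cells, read out by a cell viability assay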
Description: SANGER: Inhibition of human EoL-1-cell cell growth in a cell viability assay.

LB2518-MEL = assay type: functional, cell-based; details: Homo sapiens;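 also: growth inhibition of human LB2518-MEL cells, measured with a cell viability assay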
Description: SANGER: Inhibition of human LB2518-MEL cell growth in a cell viability assay.

**Q.** How did the IC50 (TGW) turn out when C=CC(=O)N1CCCC(Nc2nc(Nc3ccc(N(C)C(=O)CC)cc3)nc3[nH]cnc23)C1 (stereo not given) was run?
**A.** > 10.2 µM

**Q.** And the IC50 (SK-LMS-1)?
**A.** > 10.2 µM

**Q.** And the IC50 (LU-139)?
**A.** > 10.2 µM

**Q.** And the IC50 (KGN)?
**A.** > 10.2 µM

**Q.** What about the IC50 (CCRF-CEM) of the same molecule?
**A.** > 10.2 µM

**Q.** And the IC50 (RPMI-8226)?
**A.** > 10.2 µM

**Q.** What about the IC50 (SK-N-FI) of the same molecule?
**A.** > 10.2 µM

**Q.** And the IC50 (BE-13)?
**A.** > 10.2 µM

**Q.** What about the IC50 (MS-1) of the same molecule?
**A.** > 10.2 µM

**Q.** What about the IC50 (NEC8) of the same molecule?
**A.** > 10.2 µM

**Q.** And the IC50 (COLO-320-HSR)?
**A.** > 10.2 µM

**Q.** What about the IC50 (SF-126) of the same molecule?
**A.** > 10.2 µM

**Q.** What about the IC50 (HCE-4) of the same molecule?
**A.** > 10.2 µM

**Q.** And the IC50 (SNU-C2B)?
**A.** > 10.2 µM

**Q.** And the IC50 (DSH1)?
**A.** > 10.2 µM

**Q.** And the IC50 (RH-1)?
**A.** > 10.2 µM

**Q.** And the IC50 (NCI-H1355)?
**A.** > 10.2 µM

**Q.** And the IC50 (NCI-H69)?
**A.** > 10.2 µM

**Q.** What about the IC50 (JAR) of the same molecule?
**A.** > 10.2 µM

**Q.** And the IC50 (AM-38)?
**A.** > 10.2 µM

**Q.** And the IC50 (NB69)?
**A.** > 10.2 µM

**Q.** What about the IC50 (NOMO-1) of the same molecule?
**A.** > 10.2 µM

**Q.** What about the IC50 (8-MG-BA) of the same molecule?
**A.** > 10.2 µM

**Q.** And the IC50 (A3-KAW)?
**A.** > 10.2 µM

**Q.** What about the IC50 (D283 Med) of the same molecule?
**A.** > 10.2 µM

**Q.** And the IC50 (NB13)?
**A.** > 10.2 µM

**Q.** What about the IC50 (BT-474) of the same molecule?
**A.** > 10.2 µM

**Q.** And the IC50 (SK-N-DZ)?
**A.** > 10.2 µM

**Q.** And the IC50 (TE-8)?
**A.** > 10.2 µM

**Q.** What about the IC50 (SHP77) of the same molecule?
**A.** > 10.2 µM

**Q.** And the IC50 (D-247MG)?
**A.** > 10.2 µM

**Q.** What about the IC50 (LS-1034) of the same molecule?
**A.** > 10.2 µM

**Q.** And the IC50 (SK-MEL-1)?
**A.** > 10.2 µM

**Q.** What about the IC50 (MV4-11) of the same molecule?
**A.** 2.39 µM

**Q.** What about the IC50 (JVM-3) of the same molecule?
**A.** > 10.2 µM

**Q.** And the IC50 (SW982)?
**A.** > 10.2 µM

**Q.** What about the IC50 (RPMI-8866) of the same molecule?
**A.** > 10.2 µM

**Q.** What about the IC50 (NTERA-2-cl-D1) of the same molecule?
**A.** > 10.2 µM

**Q.** And the IC50 (TE-9)?
**A.** > 10.2 µM

**Q.** What about the IC50 (NCI-H1648) of the same molecule?
**A.** 8.58 µM

**Q.** And the IC50 (A388)?
**A.** 7.41 µM

**Q.** And the IC50 (HEL)?
**A.** > 10.2 µM

**Q.** And the IC50 (ES1)?
**A.** > 10.2 µM

**Q.** And the IC50 (SW 962)?
**A.** 5.16 µM

**Q.** What about the IC50 (HOP-62) of the same molecule?
**A.** > 10.2 µM

**Q.** What about the IC50 (OCUB-M) of the same molecule?
**A.** 2.1 µM

**Q.** And the IC50 (NMC-G1)?
**A.** > 10.2 µM

**Q.** What about the IC50 (MZ1-PC) of the same molecule?
**A.** 7.94 µM

**Q.** And the IC50 (EOL1)?
**A.** 4.4 µM

**Q.** And the IC50 (LB2518-MEL)?
**A.** > 10.2 µM

**Q.** COc1ccc(N(C(=O)Oc2c(C)cccc2C)c2ccnc(Nc3ccc(N4CCN(C)CC4)cc3)n2)c(OC)c1 was tested. Which IC50 (TGW) did it give?
**A.** > 5.12 µM

**Q.** What about the IC50 (SK-LMS-1) of the same molecule?
**A.** > 5.12 µM

**Q.** And the IC50 (LU-139)?
**A.** > 5.12 µM

**Q.** And the IC50 (KGN)?
**A.** 1.05 µM

**Q.** And the IC50 (CCRF-CEM)?
**A.** > 5.12 µM

**Q.** What about the IC50 (RPMI-8226) of the same molecule?
**A.** > 5.12 µM

**Q.** What about the IC50 (SK-N-FI) of the same molecule?
**A.** > 5.12 µM

**Q.** What about the IC50 (BE-13) of the same molecule?
**A.** > 5.12 µM

**Q.** What about the IC50 (MS-1) of the same molecule?
**A.** > 5.12 µM

**Q.** What about the IC50 (NEC8) of the same molecule?
**A.** > 5.12 µM

**Q.** What about the IC50 (COLO-320-HSR) of the same molecule?
**A.** > 5.12 µM

**Q.** What about the IC50 (SF-126) of the same molecule?
**A.** 1.73 µM

**Q.** And the IC50 (HCE-4)?
**A.** > 5.12 µM

**Q.** What about the IC50 (SNU-C2B) of the same molecule?
**A.** > 5.12 µM

**Q.** And the IC50 (DSH1)?
**A.** > 5.12 µM

**Q.** And the IC50 (RH-1)?
**A.** > 5.12 µM

**Q.** And the IC50 (NCI-H1355)?
**A.** 4.88 µM

**Q.** And the IC50 (NCI-H69)?
**A.** > 5.12 µM

**Q.** And the IC50 (JAR)?
**A.** > 5.12 µM

**Q.** What about the IC50 (AM-38) of the same molecule?
**A.** > 5.12 µM

**Q.** And the IC50 (NB69)?
**A.** > 5.12 µM

**Q.** What about the IC50 (NOMO-1) of the same molecule?
**A.** > 5.12 µM

**Q.** What about the IC50 (8-MG-BA) of the same molecule?
**A.** > 5.12 µM

**Q.** And the IC50 (A3-KAW)?
**A.** > 5.12 µM

**Q.** What about the IC50 (D283 Med) of the same molecule?
**A.** > 5.12 µM

**Q.** What about the IC50 (NB13) of the same molecule?
**A.** > 5.12 µM

**Q.** And the IC50 (BT-474)?
**A.** > 5.12 µM

**Q.** What about the IC50 (SK-N-DZ) of the same molecule?
**A.** > 5.12 µM

**Q.** And the IC50 (TE-8)?
**A.** 0.239 µM

**Q.** And the IC50 (SHP77)?
**A.** > 5.12 µM

**Q.** And the IC50 (D-247MG)?
**A.** > 5.12 µM

**Q.** What about the IC50 (LS-1034) of the same molecule?
**A.** > 5.12 µM

**Q.** And the IC50 (SK-MEL-1)?
**A.** > 5.12 µM

**Q.** What about the IC50 (MV4-11) of the same molecule?
**A.** > 5.12 µM

**Q.** And the IC50 (JVM-3)?
**A.** > 5.12 µM

**Q.** What about the IC50 (SW982) of the same molecule?
**A.** 0.858 µM

**Q.** What about the IC50 (RPMI-8866) of the same molecule?
**A.** > 5.12 µM

**Q.** And the IC50 (NTERA-2-cl-D1)?
**A.** 0.289 µM

**Q.** And the IC50 (TE-9)?
**A.** 4.39 µM

**Q.** What about the IC50 (NCI-H1648) of the same molecule?
**A.** 0.516 µM

**Q.** What about the IC50 (A388) of the same molecule?
**A.** > 5.12 µM

**Q.** And the IC50 (HEL)?
**A.** > 5.12 µM

**Q.** And the IC50 (ES1)?
**A.** > 5.12 µM

**Q.** What about the IC50 (SW 962) of the same molecule?
**A.** 1.34 µM

**Q.** What about the IC50 (HOP-62) of the same molecule?
**A.** 0.916 µM

**Q.** What about the IC50 (OCUB-M) of the same molecule?
**A.** > 5.12 µM

**Q.** And the IC50 (NMC-G1)?
**A.** > 5.12 µM

**Q.** What about the IC50 (MZ1-PC) of the same molecule?
**A.** 0.227 µM

**Q.** And the IC50 (EOL1)?
**A.** < 0.02 µM

**Q.** And the IC50 (LB2518-MEL)?
**A.** 0.0467 µM
